Source: ChEMBL document CHEMBL1201862, “PubChem BioAssay data set” (2004)
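Dose response: 5 concentrations. Exposure: 48 h. Format: 96-well plates. Endpoint: linear interpolation; highest concentration if not reached. At the GI50, growth is halved.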 Activity calls are given as the source filed them. Rule as the data show it: active = GI50 up to about 1.1 µM and inactive = higher.

Experiments:
Assay in all cases: NCI tumour cell line growth inhibition, 48 h
[1] = system: HOP-92
[2] = system: DU-145
[3] = system: SR
[4] = system: NCI-H226
[5] = system: HL-60
[6] = system: 786-0
[7] = system: CCRF-CEM
[8] = system: A498
[9] = system: K562
[10] = system: HOP-62
[11] = system: OVCAR-3
[12] = system: MDA-MB-231
[13] = system: KM12
[14] = system: M14
[15] = system: OVCAR-8
[16] = system: SK-OV-3
[17] = system: TK-10
[18] = system: UACC-62
[19] = system: SF-539
[20] = system: SF-295
[21] = system: BT-549
[22] = system: COLO 205
[23] = system: OVCAR-5
[24] = system: CAKI-1
[25] = system: SNB-75
[26] = system: U-251
[27] = system: SW-620
[28] = system: MDA-N
[29] = system: SK-MEL-28
[30] = system: MDA-MB-435
[31] = system: PC-3
[32] = system: SNB-19
[33] = system: LOX IMVI
[34] = system: IGROV-1
[35] = system: NCI-H460
[36] = system: MCF7
[37] = system: UO-31
[38] = system: ACHN
[39] = system: SN12C
[40] = system: A549
[41] = system: NCI-H23
[42] = system: SK-MEL-2
[43] = system: HCT-116
[44] = system: EKVX
[45] = system: OVCAR-4
[46] = system: Malme-3M
[47] = system: SK-MEL-5
[48] = system: HCT-15
[49] = system: UACC-257
[50] = system: SF-268
[51] = system: RPMI-8226
[52] = system: NCI-H522
[53] = system: NCI/ADR-RES
[54] = system: HCC 2998
[55] = system: T47D
[56] = system: HT-29
[57] = system: MOLT-4
[58] = system: Hs-578T
[59] = system: RXF 393

Measured: GI50

OCCCSCCO
> 100 µM: [48]
inactive: [1] > 100 µM | [2] > 100 µM | [3] > 100 µM | [4] > 100 µM | [5] > 100 µM | [6] > 100 µM | [7] > 100 µM | [8] > 100 µM | [9] > 100 µM | [10] > 100 µM | [11] > 100 µM | [12] > 100 µM | [13] > 100 µM | [14] > 100 µM | [15] > 100 µM | [16] > 100 µM | [17] > 100 µM | [18] > 100 µM | [19] > 100 µM | [20] > 100 µM | [21] > 100 µM | [22] > 100 µM | [23] > 100 µM | [24] > 100 µM | [25] > 100 µM | [26] > 100 µM | [27] > 100 µM | [28] > 100 µM | [29] > 100 µM | [30] > 100 µM | [31] > 100 µM | [32] > 100 µM | [33] > 100 µM | [34] > 100 µM | [35] > 100 µM | [36] > 100 µM | [37] > 100 µM | [38] > 100 µM | [39] > 100 µM | [40] > 100 µM | [41] > 100 µM | [42] > 100 µM | [43] > 100 µM | [44] > 100 µM | [45] > 100 µM | [46] > 100 µM | [47] > 100 µM | [49] > 100 µM | [50] > 100 µM | [51] > 100 µM | [52] > 100 µM | [53] > 100 µM | [54] > 100 µM | [55] > 100 µM | [56] > 100 µM | [57] > 100 µM | [58] > 100 µM

O=C(CCc1cccc(O)c1)NCCc1cccc(O)c1
> 100 µM: [48]
inactive: [1] > 100 µM | [2] > 100 µM | [3] > 100 µM | [4] > 100 µM | [5] > 100 µM | [6] > 100 µM | [7] > 100 µM | [8] > 100 µM | [9] > 100 µM | [10] > 100 µM | [11] > 100 µM | [12] > 100 µM | [13] > 100 µM | [59] > 100 µM | [14] > 100 µM | [15] > 100 µM | [16] > 100 µM | [17] > 100 µM | [18] > 100 µM | [19] > 100 µM | [20] > 100 µM | [21] > 100 µM | [22] > 100 µM | [23] > 100 µM | [24] > 100 µM | [26] > 100 µM | [28] > 100 µM | [29] > 100 µM | [30] > 100 µM | [31] > 100 µM | [32] > 100 µM | [33] > 100 µM | [34] > 100 µM | [35] > 100 µM | [36] > 100 µM | [37] > 100 µM | [38] > 100 µM | [39] > 100 µM | [40] > 100 µM | [41] > 100 µM | [42] > 100 µM | [43] > 100 µM | [44] > 100 µM | [45] > 100 µM | [46] > 100 µM | [47] > 100 µM | [49] > 100 µM | [50] > 100 µM | [52] > 100 µM | [53] > 100 µM | [54] > 100 µM | [55] > 100 µM | [56] > 100 µM | [57] > 100 µM | [58] > 100 µM
